Like-named read-outs stand apart in the source and are kept apart here. Where a SMILES comes first, the peptide text is derived from it. [ ]: non-standard residue; d: D form. Arg(Me) = CNC(=N)NCCC[C@H](N)C(=O)O; Hyp = O=C(O)[C@@H]1C[C@@H](O)CN1; azaGly = NNC(=O)O
Tests used:
[1] = Pharmacokinetics in rats after SC and IV administration; details: rat, in vivo
Description: The PK of API-MA was studied in rats after SC and IV administration.
The PK linearity of API-MA was also investigated in rats after IV administration. The plasma C5min and AUC(0-24) values increased dose-proportionally. […] The elimination T1/2 values were 0.4 hours at 0.01 and 0.1 mg/kg and 0.5 hours at 1 mg/kg. These findings indicate that the PK of API-FB was linear in rats after single IV administration over the dose range of 0.01 to 1 mg/kg. The greater than dose-proportional increase in the first-pass kinetics with SC administration would indicate nonlinear PK in rats after SC administration.

[2] = rat, in vivo; cited from earlier work
[3] = Multiple-dose PK, 2-hour SC infusion once daily for 14 days, Japanese prostate cancer patients; type: in vivo, human; details: male, human, in vivo, sc; for dose excreted: Mean percent cumulative urinary excretion at 24 hours postdose
Description: It was an open-label, ascending dose study of API-MA administered via 2-hour SC infusion once daily for 14 days that was expected to suppress testosterone in Japanese hormone-naïve prostate cancer patients. Six patients received API-MA at doses of 0.5 mg (3 patients) and 1.0 mg (3 patients) a day for 14 days.
To measure plasma concentrations of API-MA, blood specimens were collected at the following times: Day 1 (predose and 2, 4, 6, 10 hours postdose); days 2, 4, 6, 8, 10, and 12 (predose); day 14 (predose and 2, 4, 6, 10, 24, 48 hours postdose); day 21; and day 28. To measure urinary excretion of API-MA, urine specimens were collected at the following times: Day 1 (predose and 0 to 4, 4 to 8, 8 to 12, 12 to 24 hours postdose) and day 14 (0 to 4, 4 to 8, 8 to 12, 12 to 24 hours postdose).

[4] = Pharmacokinetics in dogs after SC and IV administration; details: dog, in vivo
Text: The PK of API-MA was studied in dogs after SC and IV administration.

[5] = Pharmacokinetics in monkeys after SC and IV administration; details: monkey, in vivo
Text: The PK of API-MA was studied in monkeys after SC and IV administration.

[6] = iv, 1 mg/kg, T½ γ (elimination)

With `CNC(=N)NCCC[C@H](NC(=O)[C@H](CC(C)C)NC(=O)NNC(=O)[C@H](Cc1ccccc1)NC(=O)[C@@H](NC(=O)[C@H](CC(N)=O)NC(=O)[C@@H]1C[C@@H](O)CN1C(=O)[C@@H](Cc1ccc(O)cc1)NC(C)=O)[C@@H](C)O)C(=O)N[C@@H](Cc1c[nH]c2ccccc12)C(N)=O` [Compound 1, 2-(N-Acetyl-D-tyrosyl-trans-4-hydroxy-L-prolyl-L-asparaginyl-L-threonyl-L-phenylalanyl)-hydrazinocarbonyl-L-leucyl-Nω-methyl-L-arginyl-L-tryptophanamide] (Ac-[dY][Hyp]NTF[azaGly]L[Arg(Me)]W-NH2) the AUC(0-t) ([1]; iv, 1 mg/kg) was 1460 ± 143 ng·h/mL, the Cmax at 5 min ([1]; iv, 1 mg/kg) was 2670 ± 234 ng/mL and the AUC(0-t) ([1]; sc, 0.1 mg/kg) was 123 ± 9 ng·h/mL. For the same molecule, the Cmax ([1]; sc, 0.1 mg/kg) was 90 ± 12.5 ng/mL, the Tmax ([1]; sc, 0.1 mg/kg) was 30 min and the AUC(0-t) ([1]; sc, 1 mg/kg) was 804 ± 133 ng·h/mL. It also gave a Cmax ([1]; sc, 1 mg/kg) of 381 ± 75.5 ng/mL, a Tmax ([1]; sc, 1 mg/kg) of 54 ± 12 min and a bioavailability ([1]; sc, 1 mg/kg) of 55.3 ± 8.6%. For the same molecule, the AUC(0-t) ([1]; sc, 10 mg/kg) was 309 ± 70 ng·h/mL, the Cmax ([1]; sc, 10 mg/kg) was 285 ± 58.6 ng/mL and the Tmax ([1]; sc, 10 mg/kg) was 18 min. The bioavailability [2] was 66.3%, the “Mean percent cumulative urinary excretion at 24 hours postdose” value ([3]; 0.5 mg/day) was 8.99% and the dose excreted ([3]; 0.5 mg/day) was 6.5%. For the same molecule, the “Mean percent cumulative urinary excretion at 24 hours postdose” value ([3]; 1 mg/day) was 9.41%, the dose excreted ([3]; 1 mg/day) was 8.86% and the AUC(0-t) ([4]; iv, 1 mg/kg) was 3090 ± 80 ng·h/mL. The Cmax at 5 min ([4]; iv, 1 mg/kg) was 4250 ± 543 ng/mL, the half-life ([4]; iv, 1 mg/kg, T½ α) was 12 min and the half-life ([4]; iv, 1 mg/kg, T½ β) was 66 min. It also gave a half-life [4, 6] of 180 ± 6 min, an AUC(0-t) ([4]; sc, 0.1 mg/kg) of 252 ± 34 ng·h/mL and a Cmax ([4]; sc, 0.1 mg/kg) of 86.6 ± 19 ng/mL. It also gave a Tmax ([4]; sc, 0.1 mg/kg) of 48 ± 18 min, a bioavailability ([4]; sc, 0.1 mg/kg) of 81.5 ± 11.5% and a half-life ([4]; sc, 0.1 mg/kg, T½ β) of 84 ± 12 min. For the same molecule, the AUC(0-t) ([4]; sc, 1 mg/kg) was 2600 ± 219 ng·h/mL, the Cmax ([4]; sc, 1 mg/kg) was 883 ± 251 ng/mL and the Tmax ([4]; sc, 1 mg/kg) was 48 ± 18 min. It also gave a bioavailability ([4]; sc, 1 mg/kg) of 84 ± 8.1%, a half-life ([4]; sc, 1 mg/kg, T½ β) of 84 ± 18 min and a half-life ([4]; sc, 1 mg/kg, T½ γ) of 156 ± 12 min. The AUC(0-t) ([4]; sc, 10 mg/kg) was 28600 ng·h/mL, the Cmax ([4]; sc, 10 mg/kg) was 8840 ± 1200 ng/mL and the Tmax ([4]; sc, 10 mg/kg) was 60 min. For the same molecule, the bioavailability ([4]; sc, 10 mg/kg) was 92.7 ± 7.7%, the half-life ([4]; sc, 10 mg/kg, T½ β) was 90 ± 24 min and the half-life ([4]; sc, 10 mg/kg, T½ γ) was 156 ± 6 min. It also gave an AUC(0-t) ([5]; iv, 1 mg/kg) of 3160 ± 594 ng·h/mL, a Cmax at 5 min ([5]; iv, 1 mg/kg) of 5030 ± 787 ng/mL and a half-life ([5]; iv, 1 mg/kg, T½ α) of 18 min. The half-life ([5]; iv, 1 mg/kg, T½ β) was 72 ± 6 min, the half-life [5, 6] was 192 ± 6 min and the AUC(0-t) ([5]; sc, 0.1 mg/kg) was 295 ± 27 ng·h/mL. The Cmax ([5]; sc, 0.1 mg/kg) was 123 ± 27.3 ng/mL, the Tmax ([5]; sc, 0.1 mg/kg) was 24 ± 6 min and the bioavailability ([5]; sc, 0.1 mg/kg) was 94.9 ± 12.4%. The half-life ([5]; sc, 0.1 mg/kg, T½ β) was 96 ± 18 min, the AUC(0-t) ([5]; sc, 1 mg/kg) was 2790 ± 262 ng·h/mL and the Cmax ([5]; sc, 1 mg/kg) was 1320 ± 316 ng/mL. It also gave a Tmax ([5]; sc, 1 mg/kg) of 18 min, a bioavailability ([5]; sc, 1 mg/kg) of 90.1 ± 15.4% and a half-life ([5]; sc, 1 mg/kg, T½ β) of 84 ± 12 min. It also gave a half-life ([5]; sc, 1 mg/kg, T½ γ) of 150 ± 12 min, an AUC(0-t) ([5]; sc, 10 mg/kg) of 31600 ng·h/mL and a Cmax ([5]; sc, 10 mg/kg) of 12100 ng/mL. The Tmax ([5]; sc, 10 mg/kg) was 24 ± 6 min, the bioavailability ([5]; sc, 10 mg/kg) was 102 ± 14.3% and the half-life ([5]; sc, 10 mg/kg, T½ β) was 90 ± 18 min. The half-life ([5]; sc, 10 mg/kg, T½ γ) was 156 ± 18 min.

Reference: US11013780B2, “Methods of treating female infertility” (Myovant Sciences GmbH, priority 2016, dated 2021)
